Assays:
CDK2/Cyclin E1 = CDK2/Cyclin E1 (Homo sapiens, UniProt P24941); assay: CDK2/Cyclin E1 Biochemical Assay (TR-FRET), 0.060 mM ATP; settings: 0.15 μM Rb (Ser780)-biotin substrate, pH7.0, 60 min preincubation, 120 min reaction, room temperature
Method in brief: (§1)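 IC50 was from a four-parameter logistic fit of the 665/620 nm TR-FRET ratio (Eu anti-pRb Ser780 mAb, streptavidin-XL665). Compound (0-10 μM) was preincubated 60 min with enzyme, then reacted 120 min at room temperature with 0.15 μM biotinylated Rb (Ser780) peptide. ATP was 0.015 mM for CDK1/Cyclin B1 and 0.060 mM for CDK2/Cyclin E1; buffer was HEPES pH7.0.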

CDK1/Cyclin B1 = CDK1/Cyclin B1 (Homo sapiens, UniProt P06493); assay: CDK1/Cyclin B1 Biochemical Assay (TR-FRET), 0.015 mM ATP; settings: 0.15 μM Rb (Ser780)-biotin substrate, pH7.0, 60 min preincubation, 120 min reaction, room temperature
Method in brief: as §1

CDK1/Cyclin B1, sequence (P06493 whole entry): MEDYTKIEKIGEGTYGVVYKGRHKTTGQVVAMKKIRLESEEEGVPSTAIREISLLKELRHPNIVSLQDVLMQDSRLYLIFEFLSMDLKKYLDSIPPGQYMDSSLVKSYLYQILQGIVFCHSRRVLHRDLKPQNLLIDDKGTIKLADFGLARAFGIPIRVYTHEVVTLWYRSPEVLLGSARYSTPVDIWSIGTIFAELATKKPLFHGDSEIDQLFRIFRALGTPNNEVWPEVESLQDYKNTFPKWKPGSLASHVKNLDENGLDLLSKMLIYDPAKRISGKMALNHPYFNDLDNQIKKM
CDK1/Cyclin B1, sequence (P14635 whole entry partner): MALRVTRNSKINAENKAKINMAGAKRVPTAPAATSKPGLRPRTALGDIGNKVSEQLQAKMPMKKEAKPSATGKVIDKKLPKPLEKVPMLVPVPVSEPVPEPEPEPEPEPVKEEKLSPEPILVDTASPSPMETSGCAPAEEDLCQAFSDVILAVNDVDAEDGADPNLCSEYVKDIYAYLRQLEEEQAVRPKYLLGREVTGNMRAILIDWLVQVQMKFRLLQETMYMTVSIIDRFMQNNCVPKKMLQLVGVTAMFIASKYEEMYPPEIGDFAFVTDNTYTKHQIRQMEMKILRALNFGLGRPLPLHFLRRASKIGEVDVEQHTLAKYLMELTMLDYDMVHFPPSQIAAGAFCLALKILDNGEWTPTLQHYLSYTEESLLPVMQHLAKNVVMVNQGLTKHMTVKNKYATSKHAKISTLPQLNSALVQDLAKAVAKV

CC(C)NC(=O)O[C@H]1CC[C@@H](c2cc(Nc3ccc4c(c3F)CN(C3CCN(S(C)(=O)=O)CC3)S4(=O)=O)n[nH]2)C1 (relative stereo) [Example 77, cis-3-(3-((4-fluoro-2-(1-(methylsulfonyl)piperidin-4-yl)-1,1-dioxido-2,3-dihydrobenzo[d]isothiazol-5-yl)amino)-1H-pyrazol-5-yl)cyclopentyl isopropylcarbamate]
IC50 (CDK2/Cyclin E1): 10 nM | IC50 (CDK1/Cyclin B1): 621 nM

CC(C)NC(=O)O[C@H]1CC[C@@H](c2cc(Nc3ccc4c(c3F)CN(CCCN(C)C)S4(=O)=O)n[nH]2)C1 (relative stereo) [Example 73, cis-3-(3-((2-(3-(dimethylamino)propyl)-4-fluoro-1,1-dioxido-2,3-dihydrobenzo[d]isothiazol-5-yl)amino)-1H-pyrazol-5-yl)cyclopentyl isopropylcarbamate]
IC50 (CDK2/Cyclin E1): 7.9 nM | IC50 (CDK1/Cyclin B1): 583 nM

COCC(C)(C)NC(=O)O[C@H]1CC[C@@H](c2cc(Nc3ccc4c(c3F)CNS4(=O)=O)n[nH]2)C1 (relative stereo) [Example 364, cis-3-(3-((4-fluoro-1,1-dioxido-2,3-dihydrobenzo[d]isothiazol-5-yl)amino)-1H-pyrazol-5-yl)cyclopentyl(1-methoxy-2-methylpropan-2-yl)carbamate]
IC50 (CDK2/Cyclin E1): 1.6 nM | IC50 (CDK1/Cyclin B1): 102 nM

CC1(NC(=O)O[C@H]2CC[C@@H](c3cc(Nc4ccc5c(c4)CNS5(=O)=O)n[nH]3)C2)CC1 (relative stereo) [Example 177, cis-3-(3-((1,1-dioxido-2,3-dihydrobenzo[d]isothiazol-5-yl)amino)-1H-pyrazol-5-yl)cyclopentyl(1-methylcyclopropyl)carbamate]
IC50 (CDK2/Cyclin E1): 1.1 nM | IC50 (CDK1/Cyclin B1): 27 nM

CN1Cc2c(ccc(Nc3cc([C@@H]4CC[C@H](OC(=O)NC5(C)CC5)C4)[nH]n3)c2F)S1(=O)=O (relative stereo) [Example 124, cis-3-(3-((4-fluoro-2-methyl-1,1-dioxido-2,3-dihydrobenzo[d]isothiazol-5-yl)amino)-1H-pyrazol-5-yl)cyclopentyl(1-methylcyclopropyl)carbamate]
IC50 (CDK2/Cyclin E1): 1.6 nM | IC50 (CDK1/Cyclin B1): 120 nM

CCCNC(=O)O[C@H]1C[C@@H](c2cc(Nc3cc4c(cc3F)S(=O)(=O)NC4)n[nH]2)C1 [Example 50, cis-3-(3-((6-fluoro-1,1-dioxido-2,3-dihydrobenzo[d]isothiazol-5-yl)amino)-1H-pyrazol-5-yl)cyclobutyl propylcarbamate]
IC50 (CDK2/Cyclin E1): 5.6 nM | IC50 (CDK1/Cyclin B1): 140 nM

CC[C@H](C)NC(=O)O[C@H]1CC[C@@H](c2cc(Nc3ccc4c(c3F)CN(C3CC3)S4(=O)=O)n[nH]2)C1 (single isomer, unassigned) [Example 117b]
IC50 (CDK2/Cyclin E1): 1.8 nM | IC50 (CDK1/Cyclin B1): 91 nM

CC(C)NC(=O)O[C@@H]1CC[C@H](c2cc(Nc3ccc4c(c3)CS(=O)(=O)N4)n[nH]2)C1 (single isomer, unassigned) [Example 7a]
IC50 (CDK2/Cyclin E1): 0.9 nM | IC50 (CDK1/Cyclin B1): 28 nM

CN1Cc2c(ccc(Nc3cc([C@@H]4CC[C@H](OC(=O)NCC(C)(C)O)C4)[nH]n3)c2F)S1(=O)=O (relative stereo) [Example 168, cis-3-(3-((4-fluoro-2-methyl-1,1-dioxido-2,3-dihydrobenzo[d]isothiazol-5-yl)amino)-1H-pyrazol-5-yl)cyclopentyl(2-hydroxy-2-methylpropyl)carbamate]
IC50 (CDK2/Cyclin E1): 12 nM | IC50 (CDK1/Cyclin B1): 545 nM

[2H]C([2H])([2H])N1c2ccc(Nc3cc([C@@H]4CC[C@H](OC(=O)NCCC)C4)[nH]n3)c(F)c2CS1(=O)=O (single isomer, unassigned) [Example 268a, cis-3-(3-((4-fluoro-1-(methyl-d3)-2,2-dioxido-1,3-dihydrobenzo[c]isothiazol-5-yl)amino)-1H-pyrazol-5-yl)cyclopentyl propylcarbamate]
IC50 (CDK2/Cyclin E1): 14 nM | IC50 (CDK1/Cyclin B1): 285 nM

COCC(C)NC(=O)O[C@H]1CC[C@@H](c2cc(Nc3ccc4c(c3)CS(=O)(=O)N4C)n[nH]2)C1 (relative stereo) [Example 226, cis-3-(3-((1-methyl-2,2-dioxido-1,3-dihydrobenzo[c]isothiazol-5-yl)amino)-1H-pyrazol-5-yl)cyclopentyl(1-methoxypropan-2-yl)carbamate]
IC50 (CDK2/Cyclin E1): 2 nM | IC50 (CDK1/Cyclin B1): 77 nM

CC(=O)N1CCC(N2Cc3c(ccc(Nc4cc([C@@H]5CC[C@H](OC(=O)NC(C)C)C5)[nH]n4)c3F)S2(=O)=O)CC1 (relative stereo) [Example 78, cis-3-(3-((2-(1-acetylpiperidin-4-yl)-4-fluoro-1,1-dioxido-2,3-dihydrobenzo[d]isothiazol-5-yl)amino)-1H-pyrazol-5-yl)cyclopentyl isopropylcarbamate]
IC50 (CDK2/Cyclin E1): 8.9 nM | IC50 (CDK1/Cyclin B1): 556 nM

O=C(NC12CC(C1)C2)O[C@H]1CC[C@@H](c2cc(Nc3ccc4c(c3F)CNS4(=O)=O)n[nH]2)C1 (relative stereo) [Example 150, cis-3-(3-((4-fluoro-1,1-dioxido-2,3-dihydrobenzo[d]isothiazol-5-yl)amino)-1H-pyrazol-5-yl)cyclopentyl bicyclo[1.1.1]pentan-1-ylcarbamate]
IC50 (CDK2/Cyclin E1): 0.3 nM | IC50 (CDK1/Cyclin B1): 24 nM

CC(C)NC(=O)O[C@H]1CC[C@@H](c2cc(Nc3ccc4c(c3F)CN(CCO)S4(=O)=O)n[nH]2)C1 (single isomer, unassigned) [Example 125a, cis-3-(3-((4-fluoro-2-(2-hydroxyethyl)-1,1-dioxido-2,3-dihydrobenzo[d]isothiazol-5-yl)amino)-1H-pyrazol-5-yl)cyclopentyl isopropylcarbamate]
IC50 (CDK2/Cyclin E1): 12 nM | IC50 (CDK1/Cyclin B1): 1220 nM

CCCNC(=O)O[C@H]1CC[C@@H](c2cc(Nc3ccc4c(c3F)CS(=O)(=O)N4C3COC3)n[nH]2)C1 (racemic) [Example 260, cis-3-(3-((4-fluoro-1-(oxetan-3-yl)-2,2-dioxido-1,3-dihydrobenzo[c]isothiazol-5-yl)amino)-1H-pyrazol-5-yl)cyclopentyl propylcarbamate]
IC50 (CDK2/Cyclin E1): 3.2 nM | IC50 (CDK1/Cyclin B1): 110 nM

COCC(C)(C)NC(=O)O[C@H]1CC[C@@H](c2cc(Nc3ccc4c(c3F)CS(=O)(=O)N4C)n[nH]2)C1 (relative stereo) [Example 377, cis-3-(3-((4-fluoro-1-methyl-2,2-dioxido-1,3-dihydrobenzo[c]isothiazol-5-yl)amino)-1H-pyrazol-5-yl)cyclopentyl(1-methoxy-2-methylpropan-2-yl)carbamate]
IC50 (CDK2/Cyclin E1): 1.1 nM | IC50 (CDK1/Cyclin B1): 45 nM

CC[C@H](C)NC(=O)O[C@H]1CC[C@@H](c2cc(Nc3ccc4c(c3F)CNS4(=O)=O)n[nH]2)C1 (single isomer, unassigned) [Example 139b]
IC50 (CDK2/Cyclin E1): 0.9 nM | IC50 (CDK1/Cyclin B1): 52 nM

CC[C@H](C)NC(=O)O[C@@H]1CC[C@H](c2cc(Nc3ccc4c(c3F)CS(=O)(=O)N4)n[nH]2)C1 (single isomer, unassigned) [Example 383a]
IC50 (CDK2/Cyclin E1): 1.7 nM | IC50 (CDK1/Cyclin B1): 45 nM

CCCNC(=O)O[C@H]1CC[C@@H](c2cc(Nc3ccc4c(c3F)CS(=O)(=O)N4C)n[nH]2)C1 (single isomer, unassigned) [Example 256b, cis-3-(3-((4-fluoro-1-methyl-2,2-dioxido-1,3-dihydrobenzo[c]isothiazol-5-yl)amino)-1H-pyrazol-5-yl)cyclopentyl propylcarbamate]
IC50 (CDK2/Cyclin E1): 4 nM | IC50 (CDK1/Cyclin B1): 130 nM

[2H]C([2H])([2H])N1Cc2c(ccc(Nc3cc([C@@H]4CC[C@H](OC(=O)NCCC)C4)[nH]n3)c2F)S1(=O)=O (relative stereo) [Example 130, cis-3-(3-((4-fluoro-2-(methyl-d3)-1,1-dioxido-2,3-dihydrobenzo[d]isothiazol-5-yl)amino)-1H-pyrazol-5-yl)cyclopentyl propylcarbamate]
IC50 (CDK2/Cyclin E1): 5.7 nM | IC50 (CDK1/Cyclin B1): 241 nM

CC(C)NC(=O)O[C@H]1CC[C@@H](c2cc(Nc3cc(CO)c4c(c3F)CNS4(=O)=O)n[nH]2)C1 (relative stereo) [Example 365, cis-3-(3-((4-fluoro-7-(hydroxymethyl)-1,1-dioxido-2,3-dihydrobenzo[d]isothiazol-5-yl)amino)-1H-pyrazol-5-yl)cyclopentyl isopropylcarbamat]
IC50 (CDK2/Cyclin E1): > 10000 nM | IC50 (CDK1/Cyclin B1): > 10000 nM

CC1(NC(=O)O[C@H]2CC[C@@H](c3cc(Nc4ccc5c(c4F)CS(=O)(=O)N5)n[nH]3)C2)CC1 (single isomer, unassigned) [Example 388b]
IC50 (CDK2/Cyclin E1): 1.3 nM | IC50 (CDK1/Cyclin B1): 21 nM

[2H]C([2H])([2H])N1Cc2c(ccc(Nc3cc([C@@H]4CC[C@H](OC(=O)NC(C)C)C4)[nH]n3)c2F)S1(=O)=O (single isomer, unassigned) [Example 129a, cis-3-(3-((4-fluoro-2-(methyl-d3)-1,1-dioxido-2,3-dihydrobenzo[d]isothiazol-5-yl)amino)-1H-pyrazol-5-yl)cyclopentyl isopropylcarbamate]
IC50 (CDK2/Cyclin E1): 4.7 nM | IC50 (CDK1/Cyclin B1): 652 nM

CCCNC(=O)O[C@H]1CC[C@@H](c2cc(Nc3ccc4c(c3)NS(=O)(=O)C4)n[nH]2)C1 (relative stereo) [Example 305, cis-3-(3-((2,2-dioxido-1,3-dihydrobenzo[c]isothiazol-6-yl)amino)-1H-pyrazol-5-yl)cyclopentyl propylcarbamate]
IC50 (CDK2/Cyclin E1): 6.5 nM | IC50 (CDK1/Cyclin B1): 58 nM

O=C(NC1(CO)CC1)O[C@H]1CC[C@@H](c2cc(Nc3ccc4c(c3F)CN(C3CC3)S4(=O)=O)n[nH]2)C1 (relative stereo) [Example 360, cis-3-(3-((2-cyclopropyl-4-fluoro-1,1-dioxido-2,3-dihydrobenzo[d]isothiazol-5-yl)amino)-1H-pyrazol-5-yl)cyclopentyl(1-(hydroxymethyl)cyclopropyl)carbamate]
IC50 (CDK2/Cyclin E1): 12 nM | IC50 (CDK1/Cyclin B1): 358 nM

CCCNC(=O)O[C@H]1CC[C@@H](c2cc(Nc3ccc4c(c3Cl)CNS4(=O)=O)n[nH]2)C1 (single isomer, unassigned) [Example 39a, cis-3-(3-((4-chloro-1,1-dioxido-2,3-dihydrobenzo[d]isothiazol-5-yl)amino)-1H-pyrazol-5-yl)cyclopentyl propylcarbamate]
IC50 (CDK2/Cyclin E1): 49 nM | IC50 (CDK1/Cyclin B1): 1360 nM
